Measurements: the NIST ThermoML archive (doi:10.1021/je0301489)

Experiments:
[1] = xn = mol fraction of the nth substance listed; conditions: 101.33 kPa, Liquid
[2] = refractive index (Na D-line) (dimensionless); xn = mol fraction of the nth substance listed; conditions: 101.33 kPa, Liquid

CCCCCCCCOC(=O)c1ccccc1C(=O)OCCCCCCCC [dioctyl 1,2-benzenedicarboxylate] + C1COCCO1
Conditions	mass density, 298.15 K [kg/m3]	mass density, 303.15 K [kg/m3]	mass density, 308.15 K [kg/m3]	refractive index, 298.15 K	refractive index, 303.15 K	refractive index, 308.15 K	speed of sound, 298.15 K [m/s]	viscosity, 298.15 K [mPa·s]	viscosity, 303.15 K [mPa·s]	viscosity, 308.15 K [mPa·s]
[1], x2 = 0	980.7	977.1	973.1	–	–	–	1421	43.03	30.18	21.88
[1], x2 = 0.1337	982.2	978.3	974.4	–	–	–	1416	32.58	24.97	17.36
[1], x2 = 0.2243	983.4	979.4	975.2	–	–	–	1412	26.39	20.41	14.44
[1], x2 = 0.3207	984.8	980.5	976.4	–	–	–	1406	20.73	16.1	11.47
[1], x2 = 0.4226	986.5	982.2	977.8	–	–	–	1400	15.4	12.12	8.836
[1], x2 = 0.5169	988.4	983.9	979.6	–	–	–	1394	11.02	8.852	6.689
[1], x2 = 0.6054	990.7	986.3	981.9	–	–	–	1388	8.056	6.528	5.001
[1], x2 = 0.7161	995	990.5	985.9	–	–	–	1379	4.947	4.096	3.246
[1], x2 = 0.8031	1000.2	995.4	990.6	–	–	–	1372	3.213	2.717	2.222
[1], x2 = 0.9017	1009.9	1004.6	999.5	–	–	–	1361	1.863	1.612	1.361
[2], x2 = 0	–	–	–	1.485	1.4831	1.481	–	–	–	–
[2], x2 = 0.1337	–	–	–	1.4836	1.4819	1.4804	–	–	–	–
[2], x2 = 0.2243	–	–	–	1.4822	1.4798	1.4775	–	–	–	–
[2], x2 = 0.3207	–	–	–	1.4812	1.4784	1.4756	–	–	–	–
[2], x2 = 0.4226	–	–	–	1.4781	1.4771	1.4762	–	–	–	–
[2], x2 = 0.5169	–	–	–	1.4733	1.4717	1.47	–	–	–	–
[2], x2 = 0.6054	–	–	–	1.4692	1.4673	1.4652	–	–	–	–
[2], x2 = 0.7161	–	–	–	1.463	1.461	1.46	–	–	–	–
[2], x2 = 0.8031	–	–	–	1.4566	1.4541	1.4516	–	–	–	–
[2], x2 = 0.9017	–	–	–	1.4422	1.4401	1.4379	–	–	–	–

CCOC(=O)CC(C)=O [ethyl 3-oxobutanoate] + C1COCCO1
Conditions	mass density, 298.15 K [kg/m3]	mass density, 303.15 K [kg/m3]	mass density, 308.15 K [kg/m3]	refractive index, 298.15 K	refractive index, 303.15 K	refractive index, 308.15 K	speed of sound, 298.15 K [m/s]	viscosity, 298.15 K [mPa·s]	viscosity, 303.15 K [mPa·s]	viscosity, 308.15 K [mPa·s]
[1], x2 = 0	1020.9	1014.9	1010.2	–	–	–	1331	1.48	1.339	1.239
[1], x2 = 0.1134	1021.5	1016	1010.6	–	–	–	1335	1.425	1.311	1.197
[1], x2 = 0.2058	1022.1	1016.5	1011	–	–	–	1338	1.386	1.276	1.165
[1], x2 = 0.3054	1022.7	1017.1	1011.4	–	–	–	1340	1.346	1.24	1.133
[1], x2 = 0.4008	1023.3	1017.6	1011.9	–	–	–	1342	1.309	1.205	1.102
[1], x2 = 0.4986	1024	1018.2	1012.4	–	–	–	1344	1.272	1.172	1.072
[1], x2 = 0.5955	1024.7	1018.8	1013	–	–	–	1345	1.237	1.14	1.044
[1], x2 = 0.6972	1025.4	1019.5	1013.7	–	–	–	1346	1.208	1.115	1.021
[1], x2 = 0.7971	1026.1	1020.3	1014.4	–	–	–	1346	1.182	1.091	1
[1], x2 = 0.8964	1026.8	1021	1015.2	–	–	–	1347	1.166	1.077	0.988
[2], x2 = 0	–	–	–	1.4166	1.4145	1.412	–	–	–	–
[2], x2 = 0.1134	–	–	–	1.417	1.4146	1.4122	–	–	–	–
[2], x2 = 0.2058	–	–	–	1.4171	1.4148	1.4124	–	–	–	–
[2], x2 = 0.3054	–	–	–	1.4174	1.415	1.4126	–	–	–	–
[2], x2 = 0.4008	–	–	–	1.4176	1.4154	1.413	–	–	–	–
[2], x2 = 0.4986	–	–	–	1.4178	1.4155	1.413	–	–	–	–
[2], x2 = 0.5955	–	–	–	1.418	1.416	1.4132	–	–	–	–
[2], x2 = 0.6972	–	–	–	1.4186	1.4162	1.4137	–	–	–	–
[2], x2 = 0.7971	–	–	–	1.4192	1.4166	1.414	–	–	–	–
[2], x2 = 0.8964	–	–	–	1.4195	1.4169	1.4144	–	–	–	–
